Tests used:
Aorta = assay: Vasorelaxant activity in rat aortic ring assessed as inhibition of phenylephrine-induced contraction; assay type: functional, tissue-based
[1] = molecular target: Rho-associated protein kinase 2 (Homo sapiens, UniProt O75116); assay: Inhibition of ROCK2 by luciferase based ATP detection assay
in vitro = details: human
[2] = molecular target: T1, cGMP-dependent protein kinase 2 (Homo sapiens, UniProt Q13237); assay: Inhibition of PRKG2
T1 sequence (Q13237 whole entry): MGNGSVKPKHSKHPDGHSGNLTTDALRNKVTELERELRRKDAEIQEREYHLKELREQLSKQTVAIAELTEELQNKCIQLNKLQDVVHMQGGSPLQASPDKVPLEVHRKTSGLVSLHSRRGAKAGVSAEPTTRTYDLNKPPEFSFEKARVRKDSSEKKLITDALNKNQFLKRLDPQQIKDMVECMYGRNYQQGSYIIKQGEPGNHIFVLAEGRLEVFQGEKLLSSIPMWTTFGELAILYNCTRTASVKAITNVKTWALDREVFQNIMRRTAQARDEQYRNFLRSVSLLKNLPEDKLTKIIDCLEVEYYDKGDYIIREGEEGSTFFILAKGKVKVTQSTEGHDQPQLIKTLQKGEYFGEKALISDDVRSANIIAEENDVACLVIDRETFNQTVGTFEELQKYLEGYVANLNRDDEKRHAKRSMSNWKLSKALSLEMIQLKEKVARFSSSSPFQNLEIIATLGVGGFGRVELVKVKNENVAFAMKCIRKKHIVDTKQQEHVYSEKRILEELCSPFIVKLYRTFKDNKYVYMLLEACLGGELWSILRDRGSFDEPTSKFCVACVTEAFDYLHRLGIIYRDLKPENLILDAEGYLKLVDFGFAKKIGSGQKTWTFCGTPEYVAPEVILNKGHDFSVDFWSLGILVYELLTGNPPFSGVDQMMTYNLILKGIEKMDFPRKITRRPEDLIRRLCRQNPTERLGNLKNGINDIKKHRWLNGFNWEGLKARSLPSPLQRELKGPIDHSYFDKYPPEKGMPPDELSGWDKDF

[3] = molecular target: Serine/threonine-protein kinase N2 (Homo sapiens, UniProt Q16513); assay: Inhibition of PRKCL2
[4] = molecular target: T2, Protein kinase C epsilon type (Homo sapiens, UniProt Q02156); assay: Inhibition of PRKCE
T2 sequence (Q02156 whole entry): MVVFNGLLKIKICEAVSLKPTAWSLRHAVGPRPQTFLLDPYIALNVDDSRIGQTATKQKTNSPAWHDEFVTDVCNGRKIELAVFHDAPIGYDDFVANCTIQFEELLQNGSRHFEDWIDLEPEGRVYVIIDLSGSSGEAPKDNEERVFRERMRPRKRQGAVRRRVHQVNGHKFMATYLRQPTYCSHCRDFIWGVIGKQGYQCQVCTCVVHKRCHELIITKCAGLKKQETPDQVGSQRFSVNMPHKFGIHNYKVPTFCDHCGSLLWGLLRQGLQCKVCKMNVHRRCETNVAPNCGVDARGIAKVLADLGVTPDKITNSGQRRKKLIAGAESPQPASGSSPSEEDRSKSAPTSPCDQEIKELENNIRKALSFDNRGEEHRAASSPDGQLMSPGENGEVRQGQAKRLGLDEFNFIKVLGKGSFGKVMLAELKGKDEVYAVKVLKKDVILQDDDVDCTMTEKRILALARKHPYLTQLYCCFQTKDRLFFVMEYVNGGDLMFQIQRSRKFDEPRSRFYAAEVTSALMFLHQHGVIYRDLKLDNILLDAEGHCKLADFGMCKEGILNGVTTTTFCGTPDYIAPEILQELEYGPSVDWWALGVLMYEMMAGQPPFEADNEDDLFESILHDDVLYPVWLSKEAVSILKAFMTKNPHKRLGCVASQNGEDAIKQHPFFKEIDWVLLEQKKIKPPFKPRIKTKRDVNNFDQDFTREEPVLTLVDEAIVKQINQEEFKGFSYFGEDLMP

Sequence of Rho-associated protein kinase 2 (O75116 whole entry): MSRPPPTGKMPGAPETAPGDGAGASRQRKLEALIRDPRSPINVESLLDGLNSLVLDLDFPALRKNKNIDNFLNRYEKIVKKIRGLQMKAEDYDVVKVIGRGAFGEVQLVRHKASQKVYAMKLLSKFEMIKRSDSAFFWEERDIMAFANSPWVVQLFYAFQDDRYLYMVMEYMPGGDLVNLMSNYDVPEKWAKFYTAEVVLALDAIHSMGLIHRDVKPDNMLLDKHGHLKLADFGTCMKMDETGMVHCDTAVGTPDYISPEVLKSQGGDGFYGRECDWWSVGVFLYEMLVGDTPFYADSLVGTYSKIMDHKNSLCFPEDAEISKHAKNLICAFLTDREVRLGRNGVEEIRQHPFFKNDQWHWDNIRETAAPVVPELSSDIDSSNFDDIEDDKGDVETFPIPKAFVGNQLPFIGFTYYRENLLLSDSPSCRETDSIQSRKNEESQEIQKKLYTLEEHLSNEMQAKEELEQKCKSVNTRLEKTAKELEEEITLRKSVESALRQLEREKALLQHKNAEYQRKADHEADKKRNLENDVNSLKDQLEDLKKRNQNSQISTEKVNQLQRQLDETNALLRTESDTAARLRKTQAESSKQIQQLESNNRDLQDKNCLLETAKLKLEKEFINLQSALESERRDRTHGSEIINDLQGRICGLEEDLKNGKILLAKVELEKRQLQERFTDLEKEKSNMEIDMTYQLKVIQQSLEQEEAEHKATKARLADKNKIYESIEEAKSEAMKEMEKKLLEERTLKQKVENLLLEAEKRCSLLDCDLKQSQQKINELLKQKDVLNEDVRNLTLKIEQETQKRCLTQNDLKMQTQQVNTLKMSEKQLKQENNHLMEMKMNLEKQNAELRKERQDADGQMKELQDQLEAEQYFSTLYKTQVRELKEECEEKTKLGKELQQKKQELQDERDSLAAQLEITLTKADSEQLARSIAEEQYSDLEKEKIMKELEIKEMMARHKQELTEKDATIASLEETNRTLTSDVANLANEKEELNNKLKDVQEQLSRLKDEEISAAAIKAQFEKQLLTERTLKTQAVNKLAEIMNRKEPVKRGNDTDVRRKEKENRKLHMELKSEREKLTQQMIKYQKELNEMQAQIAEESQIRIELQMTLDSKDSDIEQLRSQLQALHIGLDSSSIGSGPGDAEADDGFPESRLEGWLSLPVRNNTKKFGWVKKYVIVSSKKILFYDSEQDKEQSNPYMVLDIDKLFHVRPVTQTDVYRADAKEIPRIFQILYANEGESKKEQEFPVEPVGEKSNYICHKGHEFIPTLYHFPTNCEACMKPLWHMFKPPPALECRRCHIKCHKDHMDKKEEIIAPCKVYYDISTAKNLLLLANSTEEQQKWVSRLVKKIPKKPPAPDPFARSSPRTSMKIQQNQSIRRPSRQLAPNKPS
Sequence of Serine/threonine-protein kinase N2 (Q16513 whole entry): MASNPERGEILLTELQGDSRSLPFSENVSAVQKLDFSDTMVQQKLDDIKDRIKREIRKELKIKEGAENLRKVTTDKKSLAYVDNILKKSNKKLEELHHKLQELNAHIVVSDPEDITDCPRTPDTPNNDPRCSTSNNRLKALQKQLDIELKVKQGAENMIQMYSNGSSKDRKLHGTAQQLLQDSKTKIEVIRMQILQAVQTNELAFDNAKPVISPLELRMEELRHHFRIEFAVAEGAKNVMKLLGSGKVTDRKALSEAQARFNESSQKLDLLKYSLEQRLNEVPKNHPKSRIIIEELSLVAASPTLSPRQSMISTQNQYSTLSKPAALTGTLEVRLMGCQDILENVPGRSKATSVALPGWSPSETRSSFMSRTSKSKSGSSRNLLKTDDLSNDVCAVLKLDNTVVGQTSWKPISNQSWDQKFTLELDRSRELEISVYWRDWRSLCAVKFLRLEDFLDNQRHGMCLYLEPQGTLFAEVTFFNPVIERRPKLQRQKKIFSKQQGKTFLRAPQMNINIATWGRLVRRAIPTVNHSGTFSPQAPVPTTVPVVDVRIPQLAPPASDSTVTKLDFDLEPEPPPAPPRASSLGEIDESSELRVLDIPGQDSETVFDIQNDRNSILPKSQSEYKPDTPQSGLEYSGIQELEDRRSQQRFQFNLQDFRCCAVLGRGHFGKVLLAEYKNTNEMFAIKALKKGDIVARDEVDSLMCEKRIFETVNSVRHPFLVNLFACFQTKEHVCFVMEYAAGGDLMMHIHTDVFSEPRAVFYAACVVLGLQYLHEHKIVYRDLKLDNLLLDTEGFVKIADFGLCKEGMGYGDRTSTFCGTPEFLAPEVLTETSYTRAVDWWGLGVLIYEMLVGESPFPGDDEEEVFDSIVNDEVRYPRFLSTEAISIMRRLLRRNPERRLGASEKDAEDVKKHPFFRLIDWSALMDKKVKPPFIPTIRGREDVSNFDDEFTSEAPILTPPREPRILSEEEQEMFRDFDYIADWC

In the case of `O=C(Nc1cc2cc[nH]c(=O)c2cc1Cl)C1CNCC1c1ccncc1` (racemic), the EC50 (Aorta) is reported as 66 nM and the IC50 [1] is reported as 26 nM.

`CCc1cccc(C2CNCC2C(=O)Nc2cc3cc[nH]c(=O)c3cc2Cl)c1` (racemic) gave an IC50 [1] of 4 nM.

In the case of `COc1cccc(C2CNCC2C(=O)Nc2cc3cc[nH]c(=O)c3cc2Cl)c1` (racemic), the EC50 (Aorta) is reported as 88 nM and the IC50 [1] is reported as 4 nM.

`CC(C)c1cccc(C2CNCC2C(=O)Nc2cc3cc[nH]c(=O)c3cc2Cl)c1` (racemic) gave an IC50 [1] of 6 nM.

With `CNC(C(=O)Nc1cc2cc[nH]c(=O)c2cc1Cl)c1ccccc1` (centres undefined) the EC50 (Aorta) was 170 nM and the half-life (in vitro; microsomes) was 15 min.

Work on `O=C(Nc1cc2cc[nH]c(=O)c2cc1Cl)[C@H]1CNC[C@@H]1c1ccc(Cl)cc1` yielded an EC50 (Aorta) of 40 nM.

With `Cc1cccc(C2CNCC2C(=O)Nc2cc3cc[nH]c(=O)c3cc2Cl)c1` (racemic) the IC50 [1] was 5 nM.

Molecule `O=C(Nc1cc2cc[nH]c(=O)c2cc1Cl)C1CNCC1c1cccnc1` (racemic) has an EC50 (Aorta) of 150 nM, an IC50 [1] of 8 nM and a half-life (in vitro; microsomes) of 49 min.

In the case of `O=C(Nc1cc2cc[nH]c(=O)c2cc1Cl)C1CNCC1c1ccc(Br)cc1` (racemic), the EC50 (Aorta) is reported as 140 nM, the IC50 [1] is reported as 4 nM and the half-life (in vitro; microsomes) is reported as 238 min.

For `O=C(Nc1cc2cc[nH]c(=O)c2cc1Cl)C1(c2ccccc2)CCNC1` (centres undefined), the IC50 [1] was 240 nM.

With `O=C(Nc1cc2cc[nH]c(=O)c2cc1Cl)C1CNCC1c1ccccn1` (racemic) the EC50 (Aorta) was 210 nM, the IC50 [1] was 14 nM and the half-life (in vitro; liver microsomes) was 58 min.

Work on `O=C(Nc1cc2cc[nH]c(=O)c2cc1Cl)C1CNCCC1c1ccccc1` (racemic) yielded an EC50 (Aorta) of 55 nM, an IC50 [1] of 6 nM and a half-life (in vitro; liver microsomes) of 37 min.

For `NC(C(=O)Nc1cc2cc[nH]c(=O)c2cc1Cl)c1cccc(Cl)c1` (centres undefined), the IC50 [1] was 15 nM.

Molecule `O=C(Nc1cc2cc[nH]c(=O)c2cc1Cl)C1CNCC1c1cccc(Br)c1` (racemic) has an EC50 (Aorta) of 63 nM, an IC50 [1] of 2 nM and a half-life (in vitro; liver microsomes) of 43 min.

In the case of `O=C(Nc1cc2cc[nH]c(=O)c2cc1Cl)C1CNCC1c1ccc(Cl)cc1` (racemic), the EC50 (Aorta) is reported as 60 nM, the IC50 [1] is reported as 6 nM and the half-life (in vitro; liver microsomes) is reported as over 300 min.

Work on `CC(C)(C)c1cccc(C2CNCC2C(=O)Nc2cc3cc[nH]c(=O)c3cc2Cl)c1` (racemic) yielded an IC50 [1] of 11 nM.

`O=C(Nc1cc2cc[nH]c(=O)c2cc1Cl)C1CNCC1c1cccc(C(F)(F)F)c1` (racemic) gave an IC50 [1] of 4 nM.

`O=C(Nc1cc2cc[nH]c(=O)c2cc1Cl)C1CNCC1c1ccccc1` (racemic) gave an EC50 (Aorta) of 89 nM, an IC50 [1] of 6 nM and a half-life (in vitro; liver microsomes) of 130 min.

With `O=C(Nc1cc2cc[nH]c(=O)c2cc1Cl)[C@@H]1CCCNC1` the EC50 (Aorta) was 550 nM, the IC50 [1] was 47 nM and the half-life (in vitro; liver microsomes) was 71 min.

In the case of `O=C(Nc1cc2cc[nH]c(=O)c2cc1Cl)C1CNCC1c1ccc(F)cc1` (racemic), the EC50 (Aorta) is reported as 160 nM, the IC50 [1] is reported as 9 nM and the half-life (in vitro; liver microsomes) is reported as 61 min.

Molecule `O=C(Nc1cc2cc[nH]c(=O)c2cc1Cl)C1CNCC1c1ccc(Cl)cc1Cl` (racemic) has an IC50 [1] of 8 nM.

With `O=C(Nc1cc2cc[nH]c(=O)c2cc1Cl)[C@@H]1CNC[C@H]1c1ccc(Cl)cc1` the IC50 [2] was 24 nM, the EC50 (Aorta) was 23 nM and the IC50 [3] was 14 nM. The IC50 [4] was 1000 nM and the IC50 [1] was 4 nM.

`O=C(Nc1cc2cc[nH]c(=O)c2cc1Cl)C1(c2ccccc2)CCNCC1` gave an IC50 [1] of 230 nM.

With `O=C(Nc1cc2cc[nH]c(=O)c2cc1Cl)C1CNCC1c1cccc(OC(F)(F)F)c1` (racemic) the IC50 [1] was 7 nM.

From ChEMBL document CHEMBL1155533, “Substituted 2H-isoquinolin-1-ones as potent Rho-kinase inhibitors: part 3, aryl substituted pyrrolidines” (Bioorg Med Chem Lett, 2010)
